Test results as given in ChEMBL document CHEMBL5728800, “JAK inhibitors” (2021).

Assays:
[1] = molecular target: Tyrosine-protein kinase JAK2 (Homo sapiens, UniProt O60674); test: JAK/TYK2 Assay: 10 mM test compound stock or 1 mM control compound stock (tofocitinib, ruxolitinib or staurosporine) in DMSO was diluted to 0.4 mM in DMSO. A 3-fold series dilution was then performed in DMSO to generate 10 different compound concentrations. The assay was carried out in 384-well white plate. 0.5 uL of 40× compound DMSO solution at different concentrations was mixed with 10 uL 2× enzyme prepared in reaction buffer (20 mM HEPES, 10 mM MgCl2, 0.01% Tween, 1 mM DTT, pH 7.5). 10 uL 2× substrate mixture prepared in reaction buffer was then added to start the reaction. A short spin was done to settle down all solutions to the bottom of the plate. […] Concentrations of control compound were ten times less. Enzymatic reaction was conducted at 25° C. for 1-2 hours. 10 uL of Kinase Glo Reagents was added to stop the reaction and generate the luminescent signal which was measured using Envision. Luminescence signal was inversely related to kinase activity. […] The mixture without any compound was the positive control.
[2] = molecular target: Tyrosine-protein kinase JAK1 (Homo sapiens, UniProt P23458); test: (§1) JAK/TYK2 Assay: 10 mM test compound stock or 1 mM control compound stock (tofocitinib, ruxolitinib or staurosporine) in DMSO was diluted to 0.4 mM in DMSO. A 3-fold series dilution was then performed in DMSO to generate 10 different compound concentrations. The assay was carried out in 384-well white plate. 0.5 uL of 40× compound DMSO solution at different concentrations was mixed with 10 uL 2× enzyme prepared in reaction buffer (20 mM HEPES, 10 mM MgCl2, 0.01% Tween, 1 mM DTT, pH 7.5). 10 uL 2× substrate mixture prepared in reaction buffer was then added to start the reaction. A short spin was done to settle down all solutions to the bottom of the plate. Final concentrations of test compound in the reaction mixture were 10000, 3333, 1111, 370, 123, 41.2, 13.7, 4.57, 1.52and 0.51 nM. Concentrations of control compound were ten times less. Enzymatic reaction was conducted at 25° C. for 1-2 hours. 10 uL of Kinase Glo Reagents was added to stop the reaction and generate the luminescent signal which was measured using Envision. Luminescence signal was inversely related to kinase activity. […] The mixture without any compound was the positive control.
[3] = molecular target: Non-receptor tyrosine-protein kinase TYK2 (Homo sapiens, UniProt P29597); test: as §1
[4] = molecular target: T1, Tyrosine-protein kinase JAK3 (Homo sapiens, UniProt P52333); test: as §1
T1 sequence (P52333 whole entry): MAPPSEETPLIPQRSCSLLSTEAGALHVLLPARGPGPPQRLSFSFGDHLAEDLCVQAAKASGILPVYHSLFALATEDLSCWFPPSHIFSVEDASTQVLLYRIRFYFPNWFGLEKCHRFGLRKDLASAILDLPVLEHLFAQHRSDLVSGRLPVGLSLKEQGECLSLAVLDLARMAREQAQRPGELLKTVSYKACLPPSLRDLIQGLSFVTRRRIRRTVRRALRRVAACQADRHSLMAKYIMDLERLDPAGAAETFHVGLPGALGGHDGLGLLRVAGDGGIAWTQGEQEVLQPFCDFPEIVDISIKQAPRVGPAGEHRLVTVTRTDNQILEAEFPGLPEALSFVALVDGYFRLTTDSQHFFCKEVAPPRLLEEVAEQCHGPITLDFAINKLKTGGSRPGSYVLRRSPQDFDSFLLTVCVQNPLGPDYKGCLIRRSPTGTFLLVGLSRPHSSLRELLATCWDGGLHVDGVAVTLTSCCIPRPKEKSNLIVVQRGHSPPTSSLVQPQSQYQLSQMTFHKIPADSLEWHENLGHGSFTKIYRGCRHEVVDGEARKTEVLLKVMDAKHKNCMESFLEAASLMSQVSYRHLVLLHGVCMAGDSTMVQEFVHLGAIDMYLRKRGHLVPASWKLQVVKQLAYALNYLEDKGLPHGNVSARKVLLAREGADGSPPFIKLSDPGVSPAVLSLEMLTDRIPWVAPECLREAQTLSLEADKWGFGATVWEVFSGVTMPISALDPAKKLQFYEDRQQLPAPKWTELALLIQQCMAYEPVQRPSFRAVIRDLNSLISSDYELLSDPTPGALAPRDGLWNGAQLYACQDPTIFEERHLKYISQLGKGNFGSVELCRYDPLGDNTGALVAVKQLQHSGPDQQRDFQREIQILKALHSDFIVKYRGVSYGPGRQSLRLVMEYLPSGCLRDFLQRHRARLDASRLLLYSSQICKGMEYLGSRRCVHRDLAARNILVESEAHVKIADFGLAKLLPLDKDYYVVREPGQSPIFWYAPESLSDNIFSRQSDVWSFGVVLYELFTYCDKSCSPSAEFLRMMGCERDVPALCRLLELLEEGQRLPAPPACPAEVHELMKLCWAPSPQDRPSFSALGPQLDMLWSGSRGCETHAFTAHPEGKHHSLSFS

Non-receptor tyrosine-protein kinase TYK2, sequence (P29597 whole entry): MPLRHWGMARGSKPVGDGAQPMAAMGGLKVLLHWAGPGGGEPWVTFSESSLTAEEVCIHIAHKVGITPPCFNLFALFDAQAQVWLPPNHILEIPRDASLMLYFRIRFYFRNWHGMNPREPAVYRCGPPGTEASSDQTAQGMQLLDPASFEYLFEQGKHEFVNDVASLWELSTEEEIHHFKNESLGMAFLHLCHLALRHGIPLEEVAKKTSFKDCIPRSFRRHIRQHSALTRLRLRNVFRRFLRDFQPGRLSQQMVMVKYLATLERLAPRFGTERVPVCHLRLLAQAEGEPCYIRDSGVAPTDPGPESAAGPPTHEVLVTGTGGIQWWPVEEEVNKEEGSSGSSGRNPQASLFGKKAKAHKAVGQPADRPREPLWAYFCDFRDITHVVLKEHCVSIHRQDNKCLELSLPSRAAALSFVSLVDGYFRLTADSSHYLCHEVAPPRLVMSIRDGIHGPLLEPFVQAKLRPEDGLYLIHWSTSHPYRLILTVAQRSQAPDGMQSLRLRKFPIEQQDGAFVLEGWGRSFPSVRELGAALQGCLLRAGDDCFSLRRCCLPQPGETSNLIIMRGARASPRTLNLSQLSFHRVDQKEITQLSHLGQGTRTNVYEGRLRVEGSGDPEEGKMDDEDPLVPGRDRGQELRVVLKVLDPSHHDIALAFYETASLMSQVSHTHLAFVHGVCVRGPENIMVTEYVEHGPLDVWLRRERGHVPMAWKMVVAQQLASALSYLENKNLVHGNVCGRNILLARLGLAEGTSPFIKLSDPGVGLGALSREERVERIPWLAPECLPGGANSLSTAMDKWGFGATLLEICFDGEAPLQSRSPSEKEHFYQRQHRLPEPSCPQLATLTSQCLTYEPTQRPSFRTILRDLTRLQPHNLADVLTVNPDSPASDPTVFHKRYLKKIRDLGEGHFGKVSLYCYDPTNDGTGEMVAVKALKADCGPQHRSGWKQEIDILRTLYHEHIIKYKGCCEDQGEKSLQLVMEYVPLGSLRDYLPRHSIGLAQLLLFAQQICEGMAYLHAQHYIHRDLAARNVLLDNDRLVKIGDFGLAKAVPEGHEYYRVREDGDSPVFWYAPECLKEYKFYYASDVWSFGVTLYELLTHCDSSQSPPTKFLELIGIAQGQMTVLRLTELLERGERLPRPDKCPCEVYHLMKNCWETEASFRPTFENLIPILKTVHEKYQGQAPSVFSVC
Tyrosine-protein kinase JAK2, sequence (O60674 whole entry): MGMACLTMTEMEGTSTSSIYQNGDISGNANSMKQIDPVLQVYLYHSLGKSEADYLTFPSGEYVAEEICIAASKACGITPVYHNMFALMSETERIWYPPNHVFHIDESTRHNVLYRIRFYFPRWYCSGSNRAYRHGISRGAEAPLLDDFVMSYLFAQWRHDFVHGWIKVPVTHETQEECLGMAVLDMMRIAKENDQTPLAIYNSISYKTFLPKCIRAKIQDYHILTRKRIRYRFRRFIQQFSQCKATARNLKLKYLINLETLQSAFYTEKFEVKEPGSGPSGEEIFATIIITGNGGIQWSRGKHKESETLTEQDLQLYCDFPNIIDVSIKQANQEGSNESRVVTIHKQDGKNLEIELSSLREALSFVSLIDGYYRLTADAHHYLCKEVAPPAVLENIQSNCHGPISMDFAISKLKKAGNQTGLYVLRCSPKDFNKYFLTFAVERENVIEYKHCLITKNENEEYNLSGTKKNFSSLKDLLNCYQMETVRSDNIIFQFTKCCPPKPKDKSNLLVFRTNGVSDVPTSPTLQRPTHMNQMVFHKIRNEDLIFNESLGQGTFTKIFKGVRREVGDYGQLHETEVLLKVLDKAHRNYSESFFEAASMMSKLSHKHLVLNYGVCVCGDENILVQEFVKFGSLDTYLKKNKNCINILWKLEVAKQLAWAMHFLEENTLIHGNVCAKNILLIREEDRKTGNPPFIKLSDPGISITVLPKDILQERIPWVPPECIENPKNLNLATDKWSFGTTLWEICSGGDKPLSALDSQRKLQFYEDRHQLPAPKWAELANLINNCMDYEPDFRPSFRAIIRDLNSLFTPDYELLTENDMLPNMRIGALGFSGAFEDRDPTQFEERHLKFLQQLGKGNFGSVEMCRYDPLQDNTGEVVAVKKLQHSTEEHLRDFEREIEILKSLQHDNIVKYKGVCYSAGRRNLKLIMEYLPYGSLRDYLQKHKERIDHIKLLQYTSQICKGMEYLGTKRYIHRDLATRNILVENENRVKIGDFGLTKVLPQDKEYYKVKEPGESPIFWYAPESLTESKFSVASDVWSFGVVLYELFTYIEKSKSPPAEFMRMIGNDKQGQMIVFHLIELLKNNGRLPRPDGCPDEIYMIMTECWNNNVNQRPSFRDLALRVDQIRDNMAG
Tyrosine-protein kinase JAK1, sequence (P23458 whole entry): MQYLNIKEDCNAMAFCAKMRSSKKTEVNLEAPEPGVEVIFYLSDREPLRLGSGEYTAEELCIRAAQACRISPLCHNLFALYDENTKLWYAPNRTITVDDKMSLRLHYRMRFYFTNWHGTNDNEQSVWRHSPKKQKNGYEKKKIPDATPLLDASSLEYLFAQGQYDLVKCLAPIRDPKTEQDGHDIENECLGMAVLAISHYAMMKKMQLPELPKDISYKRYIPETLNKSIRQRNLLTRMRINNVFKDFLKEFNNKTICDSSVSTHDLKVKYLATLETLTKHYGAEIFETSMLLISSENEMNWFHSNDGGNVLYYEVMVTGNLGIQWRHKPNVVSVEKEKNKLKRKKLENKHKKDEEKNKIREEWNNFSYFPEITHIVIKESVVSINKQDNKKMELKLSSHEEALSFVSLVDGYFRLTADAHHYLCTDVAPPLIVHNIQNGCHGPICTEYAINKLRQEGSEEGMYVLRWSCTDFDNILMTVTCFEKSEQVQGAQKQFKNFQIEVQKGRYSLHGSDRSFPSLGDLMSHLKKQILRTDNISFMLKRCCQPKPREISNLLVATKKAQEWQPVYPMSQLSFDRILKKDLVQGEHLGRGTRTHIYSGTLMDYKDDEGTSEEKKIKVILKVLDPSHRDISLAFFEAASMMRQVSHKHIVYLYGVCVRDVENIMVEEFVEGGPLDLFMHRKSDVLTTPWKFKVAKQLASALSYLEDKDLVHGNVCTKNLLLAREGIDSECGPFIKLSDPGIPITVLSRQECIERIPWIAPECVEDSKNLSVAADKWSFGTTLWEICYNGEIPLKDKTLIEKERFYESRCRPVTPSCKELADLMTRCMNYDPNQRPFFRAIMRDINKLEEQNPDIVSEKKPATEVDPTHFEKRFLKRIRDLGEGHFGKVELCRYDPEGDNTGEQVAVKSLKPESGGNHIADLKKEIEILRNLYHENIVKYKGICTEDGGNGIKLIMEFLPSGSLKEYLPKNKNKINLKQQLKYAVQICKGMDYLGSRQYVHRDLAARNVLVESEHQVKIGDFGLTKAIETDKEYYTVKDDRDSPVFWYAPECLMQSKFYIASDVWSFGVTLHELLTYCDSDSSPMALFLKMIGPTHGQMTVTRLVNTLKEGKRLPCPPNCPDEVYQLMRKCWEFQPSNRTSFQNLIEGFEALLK

IC50 [1] [µM]	IC50 [2] [µM]	IC50 [3] [µM]	IC50 [4] [µM]	Compound
< 0.1	< 0.1	< 0.1	< 0.1	CC[C@H](Cn1ccc2cnc(Nc3cnn([C@@H](CCO)C(=O)O)c3)nc21)C(C)C
< 0.1	< 0.1	< 0.1	< 0.1	CCC(CC)Cn1ccc2cnc(Nc3cnn(CC(=O)OCC4OC(O)CC(O)C4O)c3)nc21 (stereo not drawn)
